What was measured:
Assay in all cases: relative viability (nuclei count vs DMSO), 5 days (fraction); higher = more cells survive
BGJ398 + Vorinostat = compound: CCN1CCN(c2ccc(Nc3cc(N(C)C(=O)Nc4c(Cl)c(OC)cc(OC)c4Cl)ncn3)cc2)CC1 [BGJ398] + O=C(CCCCCCC(=O)Nc1ccccc1)NO [Vorinostat] (partner 1 µM)
Method in brief: (§1)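 Relative viability equals treated-well nuclei counts divided by vehicle-well nuclei counts. Counts came from 4× images of lung cancer cell lines grown in 1536-well plates for 5 days after pin-tool dosing on the day after seeding. Dosing used one drug alone or a fixed anchor-drug dose plus five library-drug doses (not always all listed) in √10 steps, and values are medians of duplicate plates.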

[1] = compound: C1=CC2=NC=CN=C2C=C1/C=C/3\C(=O)NC(=O)S3 + O=C(CCCCCCC(=O)Nc1ccccc1)NO [Vorinostat] (partner 1 µM)
Method in brief: as §1

BGJ398 + Decitabine = compound: CCN1CCN(c2ccc(Nc3cc(N(C)C(=O)Nc4c(Cl)c(OC)cc(OC)c4Cl)ncn3)cc2)CC1 [BGJ398] + Nc1ncn([C@H]2C[C@H](O)[C@@H](CO)O2)c(=O)n1 [Decitabine] (partner 2 µM)
Method in brief: as §1

BGJ398 + Dasatinib = compound: CCN1CCN(c2ccc(Nc3cc(N(C)C(=O)Nc4c(Cl)c(OC)cc(OC)c4Cl)ncn3)cc2)CC1 [BGJ398] + Cc1nc(Nc2ncc(C(=O)Nc3c(C)cccc3Cl)s2)cc(N2CCN(CCO)CC2)n1 [Dasatinib] (partner 0.075 µM)
Method in brief: as §1

Cell Line	relative viability (BGJ398 + Vorinostat; first compound 0.01 µM)	relative viability (BGJ398 + Vorinostat; first compound 0.03162 µM)	relative viability (BGJ398 + Vorinostat; first compound 0.1 µM)	relative viability (BGJ398 + Vorinostat; first compound 0.3162 µM)	relative viability (BGJ398 + Vorinostat; first compound 1 µM)	relative viability ([1]; first compound 0.02 µM)	relative viability ([1]; first compound 0.06325 µM)	relative viability ([1]; first compound 0.2 µM)	relative viability ([1]; first compound 0.6325 µM)	relative viability ([1]; first compound 2 µM)	relative viability (BGJ398 + Decitabine; first compound 0.01 µM)	relative viability (BGJ398 + Decitabine; first compound 0.03162 µM)	relative viability (BGJ398 + Decitabine; first compound 0.1 µM)	relative viability (BGJ398 + Decitabine; first compound 0.3162 µM)	relative viability (BGJ398 + Decitabine; first compound 1 µM)	relative viability (BGJ398 + Dasatinib; first compound 0.01 µM)	relative viability (BGJ398 + Dasatinib; first compound 0.03162 µM)	relative viability (BGJ398 + Dasatinib; first compound 0.1 µM)	relative viability (BGJ398 + Dasatinib; first compound 0.3162 µM)	relative viability (BGJ398 + Dasatinib; first compound 1 µM)
NCI-H2342	0.845	0.703	0.959	0.711	0.801	0.677	0.781	0.799	0.731	0.636	0.725	0.808	0.714	0.758	0.815	0.321	0.33	0.334	0.318	0.295
SK-MES-1	1.05	1.11	1.03	1.09	0.913	0.925	0.998	1.08	1.08	0.829	0.377	0.345	0.41	0.349	0.321	0.421	0.33	0.433	0.426	0.418
HCC-366	0.337	0.385	0.371	0.391	0.255	0.293	–	0.436	0.305	0.204	0.336	0.371	0.355	0.306	0.347	0.626	0.681	0.793	0.6	0.558
201T	1.2	0.947	0.949	0.929	0.885	0.763	0.949	0.985	0.898	0.723	0.958	0.814	0.835	0.797	0.807	0.582	0.557	0.5	0.566	0.514
HCC-827	0.763	–	0.87	0.358	0.81	0.797	0.702	0.833	0.874	0.465	0.286	–	0.332	0.185	0.27	0.223	0.123	0.329	0.249	0.325
NCI-H647	0.471	0.549	0.482	0.51	0.626	0.545	0.898	0.485	0.546	0.494	0.413	0.359	0.491	0.336	0.412	0.164	0.188	0.178	0.178	0.0946
NCI-H2023	0.673	0.683	0.715	0.664	0.54	0.675	0.51	0.739	0.632	0.441	0.197	0.226	0.23	0.218	0.211	0.517	0.537	0.582	0.489	0.438
NCI-H520	0.637	0.563	0.503	0.269	0.332	0.879	0.834	0.645	0.802	0.677	0.538	0.436	0.397	0.242	0.295	0.138	0.177	0.138	0.142	0.146
RERF-LC-KJ	0.668	0.643	0.765	0.727	0.539	0.714	0.717	0.689	0.63	0.635	0.66	0.79	0.765	0.739	0.642	0.655	0.933	0.753	0.858	0.819
A-427	0.909	0.953	0.895	0.698	0.713	0.791	0.877	0.888	0.864	0.947	0.559	0.564	0.594	0.515	0.481	0.656	0.694	0.674	0.348	0.598
NCI-H441	–	0.73	0.822	0.916	0.81	0.794	0.786	0.948	0.845	0.509	–	0.26	0.275	0.273	0.224	0.577	0.83	0.542	0.672	0.607
NCI-H1792	–	–	–	–	–	–	–	–	–	–	0.476	0.533	0.568	0.474	0.441	0.644	0.783	0.741	0.497	0.343
SK-LU-1	0.764	0.773	0.839	0.767	0.774	0.809	0.818	0.881	0.777	0.72	0.62	0.572	0.761	0.527	0.584	0.173	0.19	0.142	0.153	0.13
PC-3 [JPC-3]	1.04	–	0.52	–	0.705	0.939	0.874	0.92	0.766	0.654	0.782	–	0.777	–	0.878	0.949	–	1.02	0.854	1.01
EMC-BAC-2	0.707	0.591	0.316	0.366	0.413	0.488	0.535	0.602	0.452	0.222	0.96	1.03	0.97	0.915	0.932	0.273	0.337	0.355	0.36	0.314
LK-2	0.296	0.334	0.247	0.225	0.207	0.245	0.353	0.37	0.213	0.169	0.234	0.262	0.222	0.157	0.137	0.286	0.248	0.163	0.203	0.179
NCI-H2126	0.768	0.787	0.861	0.775	0.765	0.666	0.825	0.843	0.801	0.462	0.608	0.601	0.611	0.612	0.566	0.696	0.646	0.565	0.687	0.563
NCI-H3122	0.99	0.991	1.01	0.996	1.2	0.926	0.981	1.03	1.07	1.05	0.394	0.416	0.458	0.478	0.42	0.761	0.833	0.923	0.785	0.991
NCI-H1975	0.677	0.794	0.758	0.677	0.672	0.683	0.734	0.735	0.731	0.674	0.492	0.454	0.423	0.406	0.381	0.359	0.449	0.378	0.34	0.316

Cell Line	relative viability (BGJ398 + Vorinostat; first compound 0.01 µM)	relative viability (BGJ398 + Vorinostat; first compound 0.03162 µM)	relative viability (BGJ398 + Vorinostat; first compound 0.1 µM)	relative viability (BGJ398 + Vorinostat; first compound 0.3162 µM)	relative viability (BGJ398 + Vorinostat; first compound 1 µM)	relative viability ([1]; first compound 0.02 µM)	relative viability ([1]; first compound 0.06325 µM)	relative viability ([1]; first compound 0.2 µM)	relative viability ([1]; first compound 0.6325 µM)	relative viability ([1]; first compound 2 µM)	relative viability (BGJ398 + Decitabine; first compound 0.01 µM)	relative viability (BGJ398 + Decitabine; first compound 0.03162 µM)	relative viability (BGJ398 + Decitabine; first compound 0.1 µM)	relative viability (BGJ398 + Decitabine; first compound 0.3162 µM)	relative viability (BGJ398 + Decitabine; first compound 1 µM)	relative viability (BGJ398 + Dasatinib; first compound 0.01 µM)	relative viability (BGJ398 + Dasatinib; first compound 0.03162 µM)	relative viability (BGJ398 + Dasatinib; first compound 0.1 µM)	relative viability (BGJ398 + Dasatinib; first compound 0.3162 µM)	relative viability (BGJ398 + Dasatinib; first compound 1 µM)
NCI-H1944	0.525	0.529	0.55	0.49	0.471	0.515	0.511	0.551	0.536	0.512	0.401	0.404	0.448	0.43	0.48	0.166	0.21	0.23	0.198	0.203
LU99A	0.472	0.437	0.542	0.451	0.486	0.425	0.515	0.506	0.42	0.268	0.776	0.763	0.735	0.756	0.68	0.569	0.487	0.518	0.321	0.409
SW 1573	0.742	0.796	0.713	0.854	0.786	0.519	1.09	0.658	0.868	0.444	0.501	0.557	0.478	0.498	0.466	0.439	0.668	0.466	0.462	0.574
NCI-H2347	0.63	0.763	0.606	0.55	0.608	0.53	0.565	0.718	0.49	0.591	0.608	0.621	0.612	0.621	0.563	0.314	0.291	0.342	0.278	0.262
NCI-H2009	0.714	0.729	0.74	0.687	0.692	0.659	0.716	0.714	0.685	0.703	0.358	0.371	0.399	0.425	0.361	0.275	0.311	0.295	0.329	0.297
HCC-15	0.809	0.795	0.779	0.824	0.759	0.733	0.737	0.872	0.844	0.702	0.571	0.6	0.78	0.73	0.618	0.648	0.645	0.631	0.639	0.576
HCC-44	1.12	1.14	1.14	1.1	1.09	0.959	1.13	1.08	1.13	1.17	0.886	0.914	0.959	0.976	0.8	–	–	–	–	–
COR-L23	0.443	0.52	0.445	0.485	0.484	0.39	0.486	0.471	0.408	0.345	0.36	0.438	0.507	0.42	0.365	0.474	0.527	0.571	0.464	0.456
HCC-78	0.427	0.417	0.518	0.481	0.577	0.464	0.428	0.379	0.449	0.349	0.616	0.701	0.682	0.777	0.695	0.385	0.375	0.34	0.388	0.362
NCI-H727	1.06	1.26	1.21	1.22	0.858	1.23	1.15	1.23	1.22	0.679	0.859	0.862	0.965	0.862	0.669	0.462	0.337	0.316	0.384	0.447
NCI-H2087	0.552	0.442	0.816	0.679	0.657	0.536	0.742	0.58	0.646	0.469	0.178	0.288	0.263	0.325	0.234	0.824	0.898	0.808	0.801	0.871
NCI-H2228	0.583	0.761	0.706	0.531	0.542	0.844	0.821	0.616	0.572	0.719	–	–	–	–	–	0.471	0.498	0.516	0.567	0.423
NCI-H1648	1.6	–	0.363	0.46	0.369	0.435	0.357	0.424	–	0.423	0.571	–	0.511	0.476	0.402	–	–	–	–	–
NCI-H1563	–	–	–	–	–	–	–	–	–	–	–	–	–	–	–	0.461	0.491	0.432	0.391	0.329
A549	–	–	–	–	–	–	–	–	–	–	0.155	0.288	0.232	0.289	0.223	–	–	–	–	–
NCI-H1623	–	–	–	–	–	–	–	–	–	–	–	–	–	–	–	0.586	0.525	0.564	0.525	0.478
IA-LM	0.797	0.806	1.09	0.972	0.894	0.884	0.467	0.964	0.985	0.968	–	–	–	–	–	–	–	–	–	–
CAL-12T	0.666	1.08	0.703	0.895	0.941	0.78	0.923	0.663	0.629	0.762	–	–	–	–	–	0.534	0.554	0.443	0.386	0.325
